# Reference: US8895733B2 (Novartis AG, priority 2010, dated 2014)
# Counter-ions that a name gives are not always drawn.
# Biological target: T1, Nav 1.7 (Homo sapiens, UniProt Q15858)
# T1 construct: expressed in transfected cells
# Assay: Whole-cell voltage clamp electrophysiology, automated patch clamp (marker c in Table of Examples)
# Type: cell-based
# Conditions: marker c = Automated patch clamp data; read-out: Nav 1.7 activity
# Method in brief: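 Human NaV1.7 currents were recorded by whole-cell automated patch clamp, on IonWorks Quattro or another automated platform, typically in perforated-patch configuration. The stimulus protocol was designed to probe block mainly of the inactivated state, with a typical sweep stepping from about −65 mV holding to −10 mV, then −100 mV.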
# T1 sequence (Q15858 whole entry): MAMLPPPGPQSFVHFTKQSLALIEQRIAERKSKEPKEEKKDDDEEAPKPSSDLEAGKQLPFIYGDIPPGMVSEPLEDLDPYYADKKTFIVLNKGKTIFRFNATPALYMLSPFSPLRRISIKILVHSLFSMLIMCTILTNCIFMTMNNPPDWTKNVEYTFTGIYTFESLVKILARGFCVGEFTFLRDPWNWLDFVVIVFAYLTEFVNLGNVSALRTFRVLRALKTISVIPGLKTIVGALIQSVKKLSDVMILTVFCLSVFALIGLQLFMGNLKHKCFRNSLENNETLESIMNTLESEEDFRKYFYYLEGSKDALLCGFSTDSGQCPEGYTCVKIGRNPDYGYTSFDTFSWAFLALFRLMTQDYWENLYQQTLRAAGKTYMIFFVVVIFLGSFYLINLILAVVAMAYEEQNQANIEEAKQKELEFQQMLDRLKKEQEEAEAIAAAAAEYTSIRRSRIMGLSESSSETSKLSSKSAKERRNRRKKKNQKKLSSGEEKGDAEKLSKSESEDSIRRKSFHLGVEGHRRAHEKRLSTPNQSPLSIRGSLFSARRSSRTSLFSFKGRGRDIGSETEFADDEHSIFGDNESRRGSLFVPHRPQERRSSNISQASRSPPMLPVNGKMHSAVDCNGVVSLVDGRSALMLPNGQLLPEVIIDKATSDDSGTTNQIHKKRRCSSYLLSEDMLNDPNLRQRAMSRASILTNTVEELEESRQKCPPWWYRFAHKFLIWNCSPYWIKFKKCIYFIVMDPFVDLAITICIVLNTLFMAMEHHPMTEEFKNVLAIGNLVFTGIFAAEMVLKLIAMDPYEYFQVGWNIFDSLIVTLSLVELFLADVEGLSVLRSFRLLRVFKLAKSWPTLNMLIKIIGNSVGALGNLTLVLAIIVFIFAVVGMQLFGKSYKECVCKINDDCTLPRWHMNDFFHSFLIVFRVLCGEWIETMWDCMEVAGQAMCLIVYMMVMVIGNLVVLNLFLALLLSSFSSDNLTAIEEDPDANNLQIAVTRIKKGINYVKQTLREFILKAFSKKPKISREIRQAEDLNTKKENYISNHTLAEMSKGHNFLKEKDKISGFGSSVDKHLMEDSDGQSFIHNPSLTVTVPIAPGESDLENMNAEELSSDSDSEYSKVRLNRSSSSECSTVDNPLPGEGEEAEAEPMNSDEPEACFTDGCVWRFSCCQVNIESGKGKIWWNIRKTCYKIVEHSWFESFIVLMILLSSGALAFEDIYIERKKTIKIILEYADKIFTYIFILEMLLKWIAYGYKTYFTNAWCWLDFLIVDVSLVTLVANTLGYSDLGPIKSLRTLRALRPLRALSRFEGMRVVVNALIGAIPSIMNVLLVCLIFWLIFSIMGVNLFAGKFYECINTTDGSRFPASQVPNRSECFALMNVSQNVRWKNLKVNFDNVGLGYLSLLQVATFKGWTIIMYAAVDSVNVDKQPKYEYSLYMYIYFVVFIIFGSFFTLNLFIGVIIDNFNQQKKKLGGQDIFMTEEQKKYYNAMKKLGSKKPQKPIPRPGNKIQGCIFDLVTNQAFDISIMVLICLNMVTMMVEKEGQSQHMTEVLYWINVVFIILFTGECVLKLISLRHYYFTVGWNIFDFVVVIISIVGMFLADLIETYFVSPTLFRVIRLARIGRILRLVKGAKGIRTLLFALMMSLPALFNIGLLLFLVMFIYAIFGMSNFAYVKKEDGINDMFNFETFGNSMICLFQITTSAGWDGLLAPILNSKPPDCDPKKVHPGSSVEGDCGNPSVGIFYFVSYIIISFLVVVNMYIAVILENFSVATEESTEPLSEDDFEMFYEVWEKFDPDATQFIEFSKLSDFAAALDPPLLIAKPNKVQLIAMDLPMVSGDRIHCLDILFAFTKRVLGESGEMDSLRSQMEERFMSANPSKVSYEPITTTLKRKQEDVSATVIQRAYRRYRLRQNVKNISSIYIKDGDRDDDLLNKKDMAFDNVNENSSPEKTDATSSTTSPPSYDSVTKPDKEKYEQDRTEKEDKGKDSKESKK
row,Compound,IC50 [nM]
1,"CN(c1cccc(Cl)c1)c1nc(N)nc(-c2noc(-c3ccc(OCC(F)(F)F)nc3)n2)n1 [Example 409, 2-N-(3-chlorophenyl)-2-N-methyl-6-{5-[6-(2,2,2-trifluoroethoxy)pyridin-3-yl]-1,2,4-oxadiazol-3-yl}-1,3,5-triazine-2,4-diamine]",261
2,"CN(c1ccccc1)c1nc(N)nc(-c2noc(C3CCC(N)CC3)n2)n1 (centres unmarked) [Example 422, 6-[5-(4-Aminocyclohexyl)-1,2,4-oxadiazol-3-yl]-2-N-methyl-2-N-phenyl-1,3,5-triazine-2,4-diamine]",9430
3,"Nc1nc(Nc2ccccc2)nc(-c2noc(C(=O)NC3Cc4ccccc4C3)n2)n1 [Example 229, 3-[4-amino-6-(phenylamino)-1,3,5-triazin-2-yl]-N-(2,3-dihydro-1H-inden-2-yl)-1,2,4-oxadiazole-5-carboxamide]",9190
4,"CCCS(=O)(=O)N1CC(c2nc(-c3nc(N)nc(N(C)c4ccccc4)n3)no2)C1 [Example 307, 2-N-methyl-2-N-phenyl-6-{5-[1-(propane-1-sulfonyl)azetidin-3-yl]-1,2,4-oxadiazol-3-yl}-1,3,5-triazine-2,4-diamine]",8050
5,"CN(c1ccccc1)c1nc(N)nc(-c2noc(C3CCCCC3)n2)n1 [Example 266, 6-(5-cyclohexyl-1,2,4-oxadiazol-3-yl)-2-N-methyl-2-N-phenyl-1,3,5-triazine-2,4-diamine]",4370
6,"CN(c1ccccc1)c1nc(N)nc(-c2noc(C(=O)N3C[C@@H]4[C@@H](COCC5CC5)[C@@H]4C3)n2)n1 [Example 404, 6-(5-{[-6-[(cyclopropylmethoxy)methyl]-3-azabicyclo[3.1.0]hexan-3-yl]carbonyl}-1,2,4-oxadiazol-3-yl)-2-N-methyl-2-N-phenyl-1,3,5-triazine-2,4-diamine]",3460
7,"CC(c1ccc(-c2nc(-c3nc(N)nc(N(C)c4ccccc4)n3)no2)nc1)N1CCCC1 (centres unmarked) [Example 294, 2-N-Methyl-2-N-phenyl-6-(5-{5-[1-(pyrrolidin-1-yl)ethyl]pyridin-2-yl}-1,2,4-oxadiazol-3-yl)-1,3,5-triazine-2,4-diamine]",3980
8,"CN(c1ccccc1)c1nc(N)nc(-c2noc(N3C[C@@H]4[C@@H](COCCC(F)(F)F)[C@@H]4C3)n2)n1 [Example 396, 2-N-methyl-2-N-phenyl-6-{5-[6-[(3,3,3-trifluoropropoxy)methyl]-3-azabicyclo[3.1.0]hexan-3-yl]-1,2,4-oxadiazol-3-yl}-1,3,5-triazine-2,4-diamine]",1130
9,"Nc1nc(Nc2ccccc2)nc(-c2noc(N3CCC(COC4CCC4)CC3)n2)n1 [Example 215, 6-{5-[4-(cyclobutoxymethyl)piperidin-1-yl]-1,2,4-oxadiazol-3-yl}-2-N-phenyl-1,3,5-triazine-2,4-diamine]",280
10,"COC1CN(c2nc(-c3nc(N)nc(N(C)c4ccccc4)n3)no2)C1 [Example 493, 6-[5-(3-methoxyazetidin-1-yl)-1,2,4-oxadiazol-3-yl]-2-N-methyl-2-N-phenyl-1,3,5-triazine-2,4-diamine]",> 9350
11,"CN(c1ccccc1)c1nc(N)nc(-c2noc([C@@H]3CCCN3)n2)n1 [Example 438, 2-N-methyl-2-N-phenyl-6-{5-[(2S)-pyrrolidin-2-yl]-1,2,4-oxadiazol-3-yl}-1,3,5-triazine-2,4-diamine hydrochloride]",2090
12,"CN(c1ccccc1)c1nc(N)nc(-c2noc(N3C[C@@H]4[C@@H](COCC5CC5)[C@@H]4C3)n2)n1 [Example 395, 6-{5-[6-[(cyclopropylmethoxy)methyl]-3-azabicyclo[3.1.0]hexan-3-yl]-1,2,4-oxadiazol-3-yl}-2-N-methyl-2-N-phenyl-1,3,5-triazine-2,4-diamine]",2660
13,"CN(c1ccccc1)c1nc(N)nc(-c2noc(-c3ccc(N4CCCCC4)nc3)n2)n1 [Example 473, 2-N-methyl-2-N-phenyl-6-{5-[6-(piperidin-1-yl)pyridin-3-yl]-1,2,4-oxadiazol-3-yl}-1,3,5-triazine-2,4-diamine]",310
14,"CC(OCC(F)(F)F)c1ccc(-c2nc(-c3nc(N)nc(N(C)c4ccccc4)n3)no2)cn1 (centres unmarked) [Example 209, 2-N-methyl-2-N-phenyl-6-(5-{6-[1-(2,2,2-trifluoroethoxy)ethyl]pyridin-3-yl}-1,2,4-oxadiazol-3-yl)-1,3,5-triazine-2,4-diamine]",74
15,"Nc1nc(Nc2ccccc2)nc(-c2noc(-c3ccc(CCC(F)(F)F)nc3)n2)n1 [Example 319, 2-N-phenyl-6-{5-[6-(3,3,3-trifluoropropyl)pyridin-3-yl]-1,2,4-oxadiazol-3-yl}-1,3,5-triazine-2,4-diamine]",150
16,"CCOC1CCN(C(=O)c2nc(-c3nc(N)nc(N(C)c4ccccc4)n3)no2)CC1 [Example 458, 6-{5-[(4-ethoxypiperidin-1-yl)carbonyl]-1,2,4-oxadiazol-3-yl}-2-N-methyl-2-N-phenyl-1,3,5-triazine-2,4-diamine]",4720

# The next lines start with the values.
row,IC50 [nM],Compound
1,838,"CN(c1ccccc1)c1nc(N)nc(-c2noc(-c3ncccc3NC3CCC3)n2)n1 [Example 488, 6-{5-[3-(cyclobutylamino)pyridin-2-yl]-1,2,4-oxadiazol-3-yl}-2-N-methyl-2-N-phenyl-1,3,5-triazine-2,4-diamine]"
2,289,"CN(c1ccc(F)cc1)c1nc(N)nc(-c2noc(-c3ncccc3F)n2)n1 [Example 474, 2-N-(4-fluorophenyl)-6-[5-(3-fluoropyridin-2-yl)-1,2,4-oxadiazol-3-yl]-2-N-methyl-1,3,5-triazine-2,4-diamine]"
3,548,"CN(c1ccccc1)c1nc(N)nc(-c2noc(-c3n[nH]cc3Cl)n2)n1 [Example 254, 6-[5-(4-chloro-1H-pyrazol-3-yl)-1,2,4-oxadiazol-3-yl]-2-N-methyl-2-N-phenyl-1,3,5-triazine-2,4-diamine]"
4,731,"CN(c1ccccc1)c1nc(N)nc(-c2noc(-c3ccc(NCC(F)(F)F)cn3)n2)n1 [Example 471, 2-N-methyl-2-N-phenyl-6-(5-{5-[(2,2,2-trifluoroethyl)amino]pyridin-2-yl}-1,2,4-oxadiazol-3-yl)-1,3,5-triazine-2,4-diamine]"
5,9500,"CN(c1ccccc1)c1nc(N)nc(-c2noc(-c3ncccc3C(=O)NC3CC3)n2)n1 [Example 376, 2-(3-{4-amino-6-[methyl(phenyl)amino]-1,3,5-triazin-2-yl}-1,2,4-oxadiazol-5-yl)-N-cyclopropylpyridine-3-carboxamide]"
6,170,"CN(c1ccccc1)c1nc(N)nc(-c2noc(-c3ccc(CCC(F)(F)F)nc3)n2)n1 [Example 315, 2-N-methyl-2-N-phenyl-6-{5-[6-(3,3,3-trifluoropropyl)pyridin-3-yl]-1,2,4-oxadiazol-3-yl}-1,3,5-triazine-2,4-diamine]"

# Same assay, conditions: marker c: Automated patch clamp data; read-out: Nav 1.7 activity
row,Compound,IC50 [nM]
1,CN(c1ccccc1)c1nc(N)nc(-c2noc(C(=O)N3CC(Oc4ccc(F)cc4)C3)n2)n1 [Example 137],564
2,"CN(c1ccccc1)c1nc(N)nc(-c2noc(N3CCC(COc4ccccc4)CC3)n2)n1 [Example 166, 2-N-methyl-6-{5-[4-(phenoxymethyl)piperidin-1-yl]-1,2,4-oxadiazol-3-yl}-2-N-phenyl-1,3,5-triazine-2,4-diamine]",60
3,"CN(c1ccccc1)c1nc(N)nc(-c2noc(N3CCOCC3)n2)n1 [Example 45, N-Methyl-6-(5-morpholin-4-yl-[1,2,4]oxadiazol-3-yl)-N-phenyl-[1,3,5]triazine-2,4-diamine]",3520
4,"Nc1nc(Nc2ccccc2)nc(-c2noc(N3CCC(COCC(F)(F)F)CC3)n2)n1 [Example 174, 2-N-Phenyl-6-(5-{4-[(2,2,2-trifluoroethoxy)methyl]piperidin-1-yl}-1,2,4-oxadiazol-3-yl)-1,3,5-triazine-2,4-diamine]",340

# Other lines, results leading:
row,IC50 [nM],Compound
1,415,"CN(c1nc(N)nc(-c2noc(-c3cccs3)n2)n1)c1ccccc1F [Example 90, N-(2-Fluoro-phenyl)-N-methyl-6-(5-thiophen-2-yl-[1,2,4]oxadiazol-3-yl)-[1,3,5]triazine-2,4-diamine]"
2,2080,"CN(c1ccccc1)c1nc(N)nc(-c2noc(-c3cnco3)n2)n1 [Example 127, N-Methyl-6-(5-oxazol-5-yl-[1,2,4]oxadiazol-3-yl)-N-phenyl-[1,3,5]triazine-2,4-diamine]"
3,703,"CN(c1ccccc1)c1nc(N)nc(-c2noc(-c3cccnc3N)n2)n1 [Example 53, 6-[5-(2-Amino-pyridin-3-yl)-[1,2,4]oxadiazol-3-yl]-N-methyl-N-phenyl-[1,3,5]triazine-2,4-diamine]"
4,1270,"COc1cccc(-c2nc(-c3nc(N)nc(N(C)c4cccc(F)c4)n3)no2)c1 [Example 85, N-(3-Fluoro-phenyl)-6-[5-(3-methoxy-phenyl)-[1,2,4]oxadiazol-3-yl]-N-methyl-[1,3,5]triazine-2,4-diamine]"
5,1230,"Cc1cc(-c2nc(-c3nc(N)nc(N(C)c4ccccc4)n3)no2)oc1C [Example 49, 6-[5-(4,5-Dimethyl-furan-2-yl)-[1,2,4]oxadiazol-3-yl]-N-methyl-N-phenyl-[1,3,5]triazine-2,4-diamine]"
6,170,"CN(c1cccc(Cl)c1)c1nc(N)nc(-c2noc(-c3ccccc3Cl)n2)n1 [Example 84, N-(3-Chloro-phenyl)-6-[5-(2-chloro-phenyl)-[1,2,4]oxadiazol-3-yl]-N-methyl-[1,3,5]triazine-2,4-diamine]"
7,3470,"CN(c1ccccc1)c1nc(N)nc(-c2noc(-c3ncccc3N)n2)n1 [Example 51, 6-[5-(3-Amino-pyridin-2-yl)-[1,2,4]oxadiazol-3-yl]-N-methyl-N-phenyl-[1,3,5]triazine-2,4-diamine]"
8,87,COc1ccc(F)cc1-c1nc(-c2nc(N)nc(N(C)c3cccc(C)c3)n2)no1 [Example 186]

# Same assay, conditions: no platform marker printed in the cell; read-out: Nav 1.7 activity
row,IC50 [nM],Compound
1,1620,"Nc1nc(-c2noc(-c3ccco3)n2)nc(N2CCCc3ccccc32)n1 [Example 116, 4-(3,4-Dihydroquinolin-1-yl)-6-(5-furan-2-yl-[1,2,4]oxadiazol-3-yl)-[1,3,5]triazine-2-amine]"
